# According to US5876694A, “Azavesamicols” (priority 1997, dated 1999):
# Read-outs that look alike come from different tables or passages of the source.
# How the values were obtained:
# Format in all cases: in vivo, male Wistar rats
# vesamicol receptor [1] = assay: Blocking experiment 2: effect of vesamicol pretreatment on radiotracer accumulation; settings: 30 min postradiotracer
# Protocol: Two separate experiments each utilizing two groups of male Wistar rats (n=3) were performed. […]
# At time = 0, animals in group 1 injected intravenously with vehicle (50%)
# aq. EtOH; 0.2 ml), while animals in group 2 each received an i.v.
# injection of (dl)vesamicol. HCl (1.01 umol/Kg0). After 15 min, both group
# were injected with the radiotracer, allowed to recover and sacrificed 30
# min postradiotracer injection.
# [2] = Tissue distribution of radiotracer in rats; settings: for tissue uptake at 5 min / tissue uptake at 0.5 h / tissue uptake at 1 h / tissue uptake at 3 h: rat
# Protocol: Tissue Distribution Experiments
# Four groups of male Wistar rats (n=4) weighing 200-350 g were used in these experiments. Each animal received, while under ether anesthesia, an intravenous injection of the radiotracer (3-5 uCi) dissolved in 0.1 mL of 50% aqueous ethanol. At 5, 30, 60 and 180 min post-injection, blood was collected from the anesthetized animal by cardiac puncture, and the animal was immediately sacrificed by cardiectomy. The organs and tissues of interest were harvested, transferred to preweighed tubes and counted in a Beckman gamma counter. The tubes were subsequently reweighed to give the weight of the corresponding tissues. Preweighed tubes containing 1 mL samples of a 1:100 dilution of the injected dose were also counted and used as reference for calculating the tissue accumulation of radioactivity. The accumulation of radiotracer was expressed as a percentage of injected dose per gram of tissue.
# The animals were injected intravenously with 4.9 uCi of the radiotracer i
# 0.1 ml of 50% aq. EtOH.
# The animals were injected with 3.7 uCi of the radiotracer in 0.1 ml of 50
# vesamicol receptor [3] = assay: Ex vivo autoradiography of rat brain; settings: 3 hrs after iv
# Protocol: Ex-vivo Autoradiographic Studies
# Two groups of male Wistar rats (n=2) were used in these experiments. Each animal in the first group received an i.v. injection of (+)-[^125 I]12h (385 uCi in 0.1/ml of 50% aq. EtOH). Similarly, animals in the second group received 330 uCi of (-)-[^125 I]12h (in 0.1 ml of 50% aq. EtOH). After 3 hrs, the animals were sacrificed by decapitation. The brains were carefully removed, embedded in Tissue Tek OCT medium and frozen to […] Twenty micron thick coronal brain slices were subsequently obtained by sectioning rostrocaudally with a Reichert HistoSTAT microtome at -15°. The tissue sections were apposed to Kodak NMC film accompanied by ^125 I-labeled external standards (^125 I-Microscales from Amersham). For delineation of cytoarchitecture, adjacent tissue sections were subjected to Nissl staining.
# vesamicol receptor [4] = assay: Blocking experiment 1: co-injection of (dl)-vesamicol with radiotracer; settings: 60 min, iv
# Protocol: (§1) Two separate experiments each utilizing two groups of male Wistar rats (n=3) were performed.
# (§2) Experiment 1. Animals in Group 1 (control) each received an intravenous injection of the radiotracer (4.7 uCi in 100 uL of 50% aq. EtOH). […] At 60 min post-injection, the animals were sacrificed and the tissues were harvested as outlined above.
# (§3) Animals in Group 1 received a single i.v. injection of radiotracer.
# (§4) Animals in Group 2 were administered with a mixture of the radiotracer an
# (§5) All animals were sacrificed a
# (§6) 60 min postradiotracer injection.
# [5] = as above; settings: rat, iv, 60 min
# Protocol: as §1, §2, §3, §4, §5, §6
# [6] = Group 2: (dl)vesamicol.HCl 1.01 umol/Kg pretreatment
# [7] = Group 2: with (dl)vesamicol hydrochloride
smiles,measurement,setting,value
"O[C@@H]1CCN(Cc2cccc([125I])c2)C[C@H]1N1CCC(c2ccccc2)CC1 (single isomer, unassigned) [(-)-[^125 I]12h, (+)- and (-)-4-hydroxy-1-(3-[I^125]iodobenzyl)-3-(4-phenyl-piperidinyl)piperidine]","Accumulation after pretreatment, ratio brain/blood",vesamicol receptor [1]; Group 1: vehicle pretreatment,6.45
same,"Accumulation after pretreatment, ratio heart/blood",vesamicol receptor [1]; Group 1: vehicle pretreatment,5.59
same,"Accumulation after pretreatment, ratio brain/blood",vesamicol receptor [1]; [6],2.75
same,"Accumulation after pretreatment, ratio heart/blood",vesamicol receptor [1]; [6],2.40
same,Ratio brain/blood,"[2]; 5 min, iv",4.27
same,Ratio heart/blood,"[2]; 5 min, iv",6.07
same,radioactivity in brain,"[2]; 5 min post-injection, iv",1.67 % of the injected dose
same,Ratio brain/blood,"[2]; 30 min, iv",9.06
same,Ratio heart/blood,"[2]; 30 min, iv",6.87
same,Ratio brain/blood,"[2]; 60 min, iv",8.51
same,Ratio heart/blood,"[2]; 60 min, iv",5.97
same,Ratio brain/blood,"[2]; 180 min, iv",9.87
same,Ratio heart/blood,"[2]; 180 min, iv",5.32
same,brain accumulation and retention (in words),[2]; compared with the (+)-isomer,higher accumulation and longer retention in the brain
same,tissue uptake at 5 min,"[2]; blood, 5 min, iv, read-out: Tissue distribution, blood",0.22 %ID/g
same,tissue uptake at 0.5 h,"[2]; blood, 30 min, iv, read-out: Tissue distribution, blood",0.11 %ID/g
same,tissue uptake at 1 h,"[2]; blood, 60 min, iv, read-out: Tissue distribution, blood",0.1 %ID/g
same,tissue uptake at 3 h,"[2]; blood, 180 min, iv, read-out: Tissue distribution, blood",0.1 %ID/g
same,tissue uptake at 5 min,"[2]; brain, 5 min, iv, read-out: Tissue distribution, brain",0.92 %ID/g
same,tissue uptake at 0.5 h,"[2]; brain, 30 min, iv, read-out: Tissue distribution, brain",0.99 %ID/g
same,tissue uptake at 1 h,"[2]; brain, 60 min, iv, read-out: Tissue distribution, brain",0.83 %ID/g
same,tissue uptake at 3 h,"[2]; brain, 180 min, iv, read-out: Tissue distribution, brain",0.92 %ID/g
same,tissue uptake at 5 min,"[2]; gonads, 5 min, iv, read-out: Tissue distribution, gonads",0.19 %ID/g
same,tissue uptake at 0.5 h,"[2]; gonads, 30 min, iv, read-out: Tissue distribution, gonads",0.23 %ID/g
same,tissue uptake at 1 h,"[2]; gonads, 60 min, iv, read-out: Tissue distribution, gonads",0.17 %ID/g
same,tissue uptake at 3 h,"[2]; gonads, 180 min, iv, read-out: Tissue distribution, gonads",0.2 %ID/g
same,tissue uptake at 5 min,"[2]; heart, 5 min, iv, read-out: Tissue distribution, heart",1.32 %ID/g
same,tissue uptake at 0.5 h,"[2]; heart, 30 min, iv, read-out: Tissue distribution, heart",0.75 %ID/g
same,tissue uptake at 1 h,"[2]; heart, 60 min, iv, read-out: Tissue distribution, heart",0.58 %ID/g
same,tissue uptake at 3 h,"[2]; heart, 180 min, iv, read-out: Tissue distribution, heart",0.5 %ID/g
same,tissue uptake at 5 min,"[2]; kidney, 5 min, iv, read-out: Tissue distribution, kidney",3.71 %ID/g
same,tissue uptake at 0.5 h,"[2]; kidney, 30 min, iv, read-out: Tissue distribution, kidney",3.53 %ID/g
same,tissue uptake at 1 h,"[2]; kidney, 60 min, iv, read-out: Tissue distribution, kidney",3.13 %ID/g
same,tissue uptake at 3 h,"[2]; kidney, 180 min, iv, read-out: Tissue distribution, kidney",3.27 %ID/g
same,tissue uptake at 5 min,"[2]; liver, 5 min, iv, read-out: Tissue distribution, liver",2.07 %ID/g
same,tissue uptake at 0.5 h,"[2]; liver, 30 min, iv, read-out: Tissue distribution, liver",2.35 %ID/g
same,tissue uptake at 1 h,"[2]; liver, 60 min, iv, read-out: Tissue distribution, liver",2.63 %ID/g
same,tissue uptake at 3 h,"[2]; liver, 180 min, iv, read-out: Tissue distribution, liver",2.23 %ID/g
same,tissue uptake at 5 min,"[2]; lung, 5 min, iv, read-out: Tissue distribution, lung",5.9 %ID/g
same,tissue uptake at 0.5 h,"[2]; lung, 30 min, iv, read-out: Tissue distribution, lung",3.21 %ID/g
same,tissue uptake at 1 h,"[2]; lung, 60 min, iv, read-out: Tissue distribution, lung",2.41 %ID/g
same,tissue uptake at 3 h,"[2]; lung, 180 min, iv, read-out: Tissue distribution, lung",2.01 %ID/g
same,tissue uptake at 5 min,"[2]; muscle, 5 min, iv, read-out: Tissue distribution, muscle",0.46 %ID/g
same,tissue uptake at 0.5 h,"[2]; muscle, 30 min, iv, read-out: Tissue distribution, muscle",0.3 %ID/g
same,tissue uptake at 1 h,"[2]; muscle, 60 min, iv, read-out: Tissue distribution, muscle",0.28 %ID/g
same,tissue uptake at 3 h,"[2]; muscle, 180 min, iv, read-out: Tissue distribution, muscle",0.27 %ID/g
same,tissue uptake at 5 min,"[2]; spleen, 5 min, iv, read-out: Tissue distribution, spleen",1.04 %ID/g
same,tissue uptake at 0.5 h,"[2]; spleen, 30 min, iv, read-out: Tissue distribution, spleen",1.24 %ID/g
same,tissue uptake at 1 h,"[2]; spleen, 60 min, iv, read-out: Tissue distribution, spleen",1.17 %ID/g
same,tissue uptake at 3 h,"[2]; spleen, 180 min, iv, read-out: Tissue distribution, spleen",1.28 %ID/g
same,tissue uptake at 5 min,"[2]; thyroid, 5 min, iv, read-out: Tissue distribution, thyroid",2.67 %ID/g
same,tissue uptake at 0.5 h,"[2]; thyroid, 30 min, iv, read-out: Tissue distribution, thyroid",3.15 %ID/g
same,tissue uptake at 1 h,"[2]; thyroid, 60 min, iv, read-out: Tissue distribution, thyroid",5.87 %ID/g
same,tissue uptake at 3 h,"[2]; thyroid, 180 min, iv, read-out: Tissue distribution, thyroid",11.6 %ID/g
same,brain level over time (in words),[2]; throughout the study (5 to 180 min),remained essentially unchanged
same,"brain regional distribution: cortex, caudate-putamen, hippocampus and red nucleus",vesamicol receptor [3],high levels of radioactivity
same,levels in cortex compared with caudate-putamen,vesamicol receptor [3],slightly higher than those observed in the caudate-putamen
same,"Blocking study, ratio brain/blood",vesamicol receptor [4]; Group 1: radiotracer alone,10.44
same,"Blocking study, ratio heart/blood",vesamicol receptor [4]; Group 1: radiotracer alone,5.37
same,"Blocking study, ratio brain/blood",vesamicol receptor [4]; [7],3.30
same,"Blocking study, ratio heart/blood",vesamicol receptor [4]; [7],1.87
same,tissue uptake at 1 h,"[5]; blood, Group 1: radiotracer alone, read-out: Blocking study, blood",0.09 %ID/g
same,tissue uptake at 1 h,"[5]; blood, Group 2: with (dl)vesamicol hydrochloride, read-out: Blocking study, blood",0.09 %ID/g
same,tissue uptake at 1 h,"[5]; brain, Group 1: radiotracer alone, read-out: Blocking study, brain",0.97 %ID/g
same,tissue uptake at 1 h,"[5]; brain, Group 2: with (dl)vesamicol hydrochloride, read-out: Blocking study, brain",0.29 %ID/g
same,tissue uptake at 1 h,"[5]; gonads, Group 1: radiotracer alone, read-out: Blocking study, gonads",0.21 %ID/g
same,tissue uptake at 1 h,"[5]; gonads, Group 2: with (dl)vesamicol hydrochloride, read-out: Blocking study, gonads",0.22 %ID/g
same,tissue uptake at 1 h,"[5]; heart, Group 1: radiotracer alone, read-out: Blocking study, heart",0.5 %ID/g
same,tissue uptake at 1 h,"[5]; heart, Group 2: with (dl)vesamicol hydrochloride, read-out: Blocking study, heart",0.16 %ID/g
same,tissue uptake at 1 h,"[5]; kidney, Group 1: radiotracer alone, read-out: Blocking study, kidney",3.11 %ID/g
same,tissue uptake at 1 h,"[5]; kidney, Group 2: with (dl)vesamicol hydrochloride, read-out: Blocking study, kidney",0.89 %ID/g
same,tissue uptake at 1 h,"[5]; liver, Group 1: radiotracer alone, read-out: Blocking study, liver",2.45 %ID/g
same,tissue uptake at 1 h,"[5]; liver, Group 2: with (dl)vesamicol hydrochloride, read-out: Blocking study, liver",2.31 %ID/g
same,tissue uptake at 1 h,"[5]; lung, Group 1: radiotracer alone, read-out: Blocking study, lung",1.96 %ID/g
same,tissue uptake at 1 h,"[5]; lung, Group 2: with (dl)vesamicol hydrochloride, read-out: Blocking study, lung",0.76 %ID/g
same,tissue uptake at 1 h,"[5]; muscle, Group 1: radiotracer alone, read-out: Blocking study, muscle",0.26 %ID/g
same,tissue uptake at 1 h,"[5]; muscle, Group 2: with (dl)vesamicol hydrochloride, read-out: Blocking study, muscle",0.12 %ID/g
same,tissue uptake at 1 h,"[5]; spleen, Group 1: radiotracer alone, read-out: Blocking study, spleen",1.1 %ID/g
same,tissue uptake at 1 h,"[5]; spleen, Group 2: with (dl)vesamicol hydrochloride, read-out: Blocking study, spleen",0.58 %ID/g
same,tissue uptake at 1 h,"[5]; thyroid, Group 1: radiotracer alone, read-out: Blocking study, thyroid",5.58 %ID/g
same,tissue uptake at 1 h,"[5]; thyroid, Group 2: with (dl)vesamicol hydrochloride, read-out: Blocking study, thyroid",6.55 %ID/g
